# Reference: article PMC6934184, “Selective DNA-PKcs inhibition extends the therapeutic index of localized radiotherapy and chemotherapy” (The Journal of Clinical Investigation, 2019)
# Target: T1, LATS1 (Homo sapiens, UniProt O95835)
# T1 construct: purchased Thermo Fisher Scientific (Life Technologies) SelectScreen
# Assay: SelectScreen LanthaScreen
# Format: binding
# Details: read-out: % displacement
# Summary of the method: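 NU5455 was profiled across the SelectScreen Broad panel of kinase activity and binding assays. Z'LYTE reactions such as CSF1R ran at apparent Km ATP, while the Adapta CAMK1 assay used ATP listed as 10. Values are given as percent.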
# T1 sequence (O95835 whole entry): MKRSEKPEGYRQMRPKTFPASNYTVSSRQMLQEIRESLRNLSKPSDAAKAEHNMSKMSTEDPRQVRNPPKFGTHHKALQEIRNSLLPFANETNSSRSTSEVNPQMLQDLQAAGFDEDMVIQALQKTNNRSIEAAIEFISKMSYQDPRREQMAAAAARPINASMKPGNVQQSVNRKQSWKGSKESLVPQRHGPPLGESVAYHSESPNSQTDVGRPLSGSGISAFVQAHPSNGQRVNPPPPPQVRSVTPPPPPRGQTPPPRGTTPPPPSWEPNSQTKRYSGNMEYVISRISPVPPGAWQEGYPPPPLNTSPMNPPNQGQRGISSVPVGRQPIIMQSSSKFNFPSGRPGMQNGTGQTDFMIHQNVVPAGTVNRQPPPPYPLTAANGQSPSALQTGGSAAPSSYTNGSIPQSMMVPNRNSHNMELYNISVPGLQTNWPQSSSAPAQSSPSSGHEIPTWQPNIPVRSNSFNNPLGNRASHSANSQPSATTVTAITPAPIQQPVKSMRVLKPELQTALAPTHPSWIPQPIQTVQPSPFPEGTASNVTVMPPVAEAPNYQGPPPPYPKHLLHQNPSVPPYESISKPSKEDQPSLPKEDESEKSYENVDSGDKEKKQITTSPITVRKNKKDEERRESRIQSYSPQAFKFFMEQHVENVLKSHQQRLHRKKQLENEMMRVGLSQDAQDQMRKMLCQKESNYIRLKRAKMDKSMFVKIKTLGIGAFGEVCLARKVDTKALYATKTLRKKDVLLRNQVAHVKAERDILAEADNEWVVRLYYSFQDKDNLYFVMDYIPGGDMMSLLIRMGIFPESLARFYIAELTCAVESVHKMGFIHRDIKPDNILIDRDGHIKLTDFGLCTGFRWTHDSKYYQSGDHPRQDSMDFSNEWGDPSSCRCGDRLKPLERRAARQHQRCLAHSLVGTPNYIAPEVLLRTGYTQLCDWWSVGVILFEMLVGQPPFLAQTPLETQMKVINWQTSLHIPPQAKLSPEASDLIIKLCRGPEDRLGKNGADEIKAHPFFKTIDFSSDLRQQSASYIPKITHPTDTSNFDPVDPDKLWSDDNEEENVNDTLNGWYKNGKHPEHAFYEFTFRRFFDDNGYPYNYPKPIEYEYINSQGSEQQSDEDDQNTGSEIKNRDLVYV
smiles,measurement,value
CN(C(=O)CN1CCOCC1)c1ccc2sc3c(-c4cccc5c(=O)cc(N6CC7CCC(C6)O7)oc45)cccc3c2c1 [NU5455],inhibition at 1 µM,-1.3%
